In patent US9695103B2 (priority 2014, dated 2017):
“And” between values parts separate entries of the source, which are not always exact repeats. Identical values can stand only once.

Experiments:
daphnias = test: Biocidal activity against crustaceans (daphnias), FR. 1.39.2007,03223 procedure; conditions: test time 96 h; for Number of survived daphnias (the average over parallel set of samples), Test sample: control sample 10
E. coli No. 906 = test: Bactericidal activity: exposure of bacterial culture in salt solution, neutralization, inoculation on solid nutrient medium; type: cell-based; set-up: key: NG - no growth; CG - confluent growth
[1] = system: E. coli No. 906, S. aureus No. 1257, clinical strain P. aeruginosa; test: Bactericidal activity, summary statement over investigated strains; type: cell-based; conditions: concentration of 2.0%, time of exposure from 30 min
[2] = system: clinical strain P. aeruginosa; test: Bactericidal activity: exposure of bacterial culture in salt solution, neutralization, inoculation on solid nutrient medium; type: cell-based; set-up: key: NG - no growth; CG - confluent growth
S. aureus No. 1257 = test: as above; type: cell-based; set-up: key: NG - no growth; CG - confluent growth
fungal spores = test: Fungicidal activity according to GOST 30028.4-2006, resistance of treated materials to fungal spores; type: cell-based; conditions: additive content 5 % wt.
[3] = 0.00001 % wt. in aqueous medium
[4] = Paper impregnated with latex SKS 65 GP

## C=CC(=O)[O-].O=C([O-])c1ccccc1.[Cu+2] [Copper acrylate-benzoate, reference compound]
daphnias; [3]
  Daphnia death rate in test sample, % of control sample: 0 % of control sample
  Number of survived daphnias (the average over parallel set of samples), Test sample: 10
daphnias; 0.0001 % wt. in aqueous medium
  Daphnia death rate in test sample, % of control sample: 0 % of control sample
  Number of survived daphnias (the average over parallel set of samples), Test sample: 10
daphnias; 0.001 % wt. in aqueous medium
  Daphnia death rate in test sample, % of control sample: 0 % of control sample
  Number of survived daphnias (the average over parallel set of samples), Test sample: 10
daphnias; 0.01 % wt. in aqueous medium
  Daphnia death rate in test sample, % of control sample: 0 % of control sample
  Number of survived daphnias (the average over parallel set of samples), Test sample: 10
daphnias; 0.1 % wt. in aqueous medium
  Daphnia death rate in test sample, % of control sample: 10 % of control sample
  Number of survived daphnias (the average over parallel set of samples), Test sample: 9
daphnias; 1 % wt. in aqueous medium
  Daphnia death rate in test sample, % of control sample: 20 % of control sample
  Number of survived daphnias (the average over parallel set of samples), Test sample: 8

## C=CC(=O)[O][Cu][O]C(=O)C(O)C(O)C(=O)O (centres unmarked) [Copper acrylate-tartrate]
E. coli No. 906; 1.5 % wt., exposure 60 min
  Bactericidal activity, growth of E. coli 906: NG
E. coli No. 906; 2.0 % wt., exposure 5 min
  Bactericidal activity, growth of E. coli 906: NG
E. coli No. 906; 2.0 % wt., exposure 15 min
  Bactericidal activity, growth of E. coli 906: NG
E. coli No. 906; 2.0 % wt., exposure 30 min
  Bactericidal activity, growth of E. coli 906: NG
E. coli No. 906; 2.0 % wt., exposure 60 min
  Bactericidal activity, growth of E. coli 906: NG
E. coli No. 906; 3.0 % wt., exposure 5 min
  Bactericidal activity, growth of E. coli 906: NG
E. coli No. 906; 3.0 % wt., exposure 15 min
  Bactericidal activity, growth of E. coli 906: NG
E. coli No. 906; 3.0 % wt., exposure 30 min
  Bactericidal activity, growth of E. coli 906: NG
[1]
  bactericidal effect against investigated strains: stable bactericidal effect
[2]; 1.5 % wt., exposure 30 min
  Bactericidal activity, growth of P. aeruginosa: CG
[2]; 1.5 % wt., exposure 60 min
  Bactericidal activity, growth of P. aeruginosa: CG
[2]; 2.0 % wt., exposure 5 min
  Bactericidal activity, growth of P. aeruginosa: CG
[2]; 2.0 % wt., exposure 15 min
  Bactericidal activity, growth of P. aeruginosa: >300 CFU
[2]; 2.0 % wt., exposure 60 min
  Bactericidal activity, growth of P. aeruginosa: NG
[2]; 3.0 % wt., exposure 5 min
  Bactericidal activity, growth of P. aeruginosa: NG
[2]; 3.0 % wt., exposure 15 min
  Bactericidal activity, growth of P. aeruginosa: NG
[2]; 3.0 % wt., exposure 30 min
  Bactericidal activity, growth of P. aeruginosa: NG
S. aureus No. 1257; 1.5 % wt., exposure 60 min
  Bactericidal activity, growth of S. aureus 1257: NG
S. aureus No. 1257; 2.0 % wt., exposure 5 min
  Bactericidal activity, growth of S. aureus 1257: NG
S. aureus No. 1257; 2.0 % wt., exposure 15 min
  Bactericidal activity, growth of S. aureus 1257: NG
S. aureus No. 1257; 2.0 % wt., exposure 30 min
  Bactericidal activity, growth of S. aureus 1257: NG
S. aureus No. 1257; 2.0 % wt., exposure 60 min
  Bactericidal activity, growth of S. aureus 1257: NG
S. aureus No. 1257; 3.0 % wt., exposure 5 min
  Bactericidal activity, growth of S. aureus 1257: NG
S. aureus No. 1257; 3.0 % wt., exposure 15 min
  Bactericidal activity, growth of S. aureus 1257: NG
S. aureus No. 1257; 3.0 % wt., exposure 30 min
  Bactericidal activity, growth of S. aureus 1257: NG
Fungal spores; [4]
  Tolerance time: 16 days
Fungal spores; Polyvinyl chloride emulsion
  Tolerance time: 17 days

## C=CC(=O)[O][Zn][O]C(=O)C(O)(CC(=O)O)CC(=O)O [Zinc acrylate-citrate]
Fungal spores; Polyvinyl chloride emulsion
  Tolerance time: 17 days

## C=CC(=O)[O-].CC(O)C(=O)[O-].[Zn+2] (centres unmarked) [Zinc acrylate-lactate]
daphnias; 0.0001 % wt. in aqueous medium
  Daphnia death rate in test sample, % of control sample: 90 % of control sample
  Number of survived daphnias (the average over parallel set of samples), Test sample: 1
daphnias; 0.001 % wt. in aqueous medium
  Daphnia death rate in test sample, % of control sample: 100 % of control sample and 70 % of control sample
daphnias; 0.01 % wt. in aqueous medium
  Daphnia death rate in test sample, % of control sample: 100 % of control sample
  Number of survived daphnias (the average over parallel set of samples), Test sample: 0
daphnias; 0.1 % wt. in aqueous medium
  Daphnia death rate in test sample, % of control sample: 100 % of control sample
  Number of survived daphnias (the average over parallel set of samples), Test sample: 0
daphnias; 1 % wt. in aqueous medium
  Daphnia death rate in test sample, % of control sample: 100 % of control sample
  Number of survived daphnias (the average over parallel set of samples), Test sample: 0

## C=CC(=O)[O][Zn][O]C(=O)CC(=O)O [Zinc acrylate-malonate]
E. coli No. 906; 1.5 % wt., exposure 5 min
  Bactericidal activity, growth of E. coli 906: >300 CFU
E. coli No. 906; 1.5 % wt., exposure 15 min
  Bactericidal activity, growth of E. coli 906: 78 CFU
E. coli No. 906; 1.5 % wt., exposure 30 min
  Bactericidal activity, growth of E. coli 906: 45 CFU and 53 CFU
E. coli No. 906; 1.5 % wt., exposure 60 min
  Bactericidal activity, growth of E. coli 906: 5 CFU and 4 CFU
E. coli No. 906; 2.0 % wt., exposure 5 min
  Bactericidal activity, growth of E. coli 906: 1 CFU
E. coli No. 906; 2.0 % wt., exposure 15 min
  Bactericidal activity, growth of E. coli 906: NG
E. coli No. 906; 2.0 % wt., exposure 30 min
  Bactericidal activity, growth of E. coli 906: NG
E. coli No. 906; 2.0 % wt., exposure 60 min
  Bactericidal activity, growth of E. coli 906: NG
[1]
  bactericidal effect against investigated strains: stable bactericidal effect
S. aureus No. 1257; 1.5 % wt., exposure 5 min
  Bactericidal activity, growth of S. aureus 1257: >300 CFU
S. aureus No. 1257; 1.5 % wt., exposure 15 min
  Bactericidal activity, growth of S. aureus 1257: 85 CFU
S. aureus No. 1257; 1.5 % wt., exposure 30 min
  Bactericidal activity, growth of S. aureus 1257: 35 CFU and 43 CFU
S. aureus No. 1257; 2.0 % wt., exposure 5 min
  Bactericidal activity, growth of S. aureus 1257: NG
S. aureus No. 1257; 2.0 % wt., exposure 15 min
  Bactericidal activity, growth of S. aureus 1257: NG
S. aureus No. 1257; 2.0 % wt., exposure 30 min
  Bactericidal activity, growth of S. aureus 1257: NG
S. aureus No. 1257; 2.0 % wt., exposure 60 min
  Bactericidal activity, growth of S. aureus 1257: NG
Fungal spores; [4]
  Tolerance time: 20 days
Fungal spores; Polyvinyl chloride emulsion
  Tolerance time: 18 days

## C=C(C)C(=O)O.O=C([O-])CC(O)C(=O)[O-].[Zn+2] (centres unmarked) [Zinc methacrylate-malate]
Fungal spores; Polyvinyl chloride emulsion
  Tolerance time: 9 days

## copper methacrylate-glycolate
E. coli No. 906; 1.5 % wt., exposure 30 min
  Bactericidal activity, growth of E. coli 906: CG
E. coli No. 906; 1.5 % wt., exposure 60 min
  Bactericidal activity, growth of E. coli 906: >300 CFU
E. coli No. 906; 2.0 % wt., exposure 5 min
  Bactericidal activity, growth of E. coli 906: CG
E. coli No. 906; 2.0 % wt., exposure 15 min
  Bactericidal activity, growth of E. coli 906: >300 CFU
E. coli No. 906; 2.0 % wt., exposure 30 min
  Bactericidal activity, growth of E. coli 906: NG
E. coli No. 906; 2.0 % wt., exposure 60 min
  Bactericidal activity, growth of E. coli 906: NG
E. coli No. 906; 3.0 % wt., exposure 5 min
  Bactericidal activity, growth of E. coli 906: NG
E. coli No. 906; 3.0 % wt., exposure 15 min
  Bactericidal activity, growth of E. coli 906: NG
E. coli No. 906; 3.0 % wt., exposure 30 min
  Bactericidal activity, growth of E. coli 906: NG
[1]
  bactericidal effect against investigated strains: stable bactericidal effect
[2]; 1.5 % wt., exposure 30 min
  Bactericidal activity, growth of P. aeruginosa: CG
[2]; 1.5 % wt., exposure 60 min
  Bactericidal activity, growth of P. aeruginosa: CG
[2]; 2.0 % wt., exposure 5 min
  Bactericidal activity, growth of P. aeruginosa: CG
[2]; 2.0 % wt., exposure 15 min
  Bactericidal activity, growth of P. aeruginosa: >300 CFU
[2]; 2.0 % wt., exposure 60 min
  Bactericidal activity, growth of P. aeruginosa: NG
[2]; 3.0 % wt., exposure 5 min
  Bactericidal activity, growth of P. aeruginosa: NG
[2]; 3.0 % wt., exposure 15 min
  Bactericidal activity, growth of P. aeruginosa: NG
[2]; 3.0 % wt., exposure 30 min
  Bactericidal activity, growth of P. aeruginosa: NG
daphnias; [3]
  Number of survived daphnias (the average over parallel set of samples), Test sample: 1
daphnias; 0.0001 % wt. in aqueous medium
  Number of survived daphnias (the average over parallel set of samples), Test sample: 0
daphnias; 0.001 % wt. in aqueous medium
  Number of survived daphnias (the average over parallel set of samples), Test sample: 0
daphnias; 0.01 % wt. in aqueous medium
  Number of survived daphnias (the average over parallel set of samples), Test sample: 0
daphnias; 0.1 % wt. in aqueous medium
  Number of survived daphnias (the average over parallel set of samples), Test sample: 0
daphnias; 1 % wt. in aqueous medium
  Number of survived daphnias (the average over parallel set of samples), Test sample: 0
S. aureus No. 1257; 1.5 % wt., exposure 30 min
  Bactericidal activity, growth of S. aureus 1257: CG
S. aureus No. 1257; 1.5 % wt., exposure 60 min
  Bactericidal activity, growth of S. aureus 1257: >300 CFU
S. aureus No. 1257; 2.0 % wt., exposure 5 min
  Bactericidal activity, growth of S. aureus 1257: CG
S. aureus No. 1257; 2.0 % wt., exposure 15 min
  Bactericidal activity, growth of S. aureus 1257: >300 CFU
S. aureus No. 1257; 2.0 % wt., exposure 30 min
  Bactericidal activity, growth of S. aureus 1257: NG
S. aureus No. 1257; 2.0 % wt., exposure 60 min
  Bactericidal activity, growth of S. aureus 1257: NG
S. aureus No. 1257; 3.0 % wt., exposure 5 min
  Bactericidal activity, growth of S. aureus 1257: NG
S. aureus No. 1257; 3.0 % wt., exposure 15 min
  Bactericidal activity, growth of S. aureus 1257: NG
S. aureus No. 1257; 3.0 % wt., exposure 30 min
  Bactericidal activity, growth of S. aureus 1257: NG
Fungal spores; [4]
  Tolerance time: 8 days
Fungal spores; Paper impregnated with petrolatum base
  Tolerance time: 8 days
Fungal spores; Polyvinyl chloride emulsion
  Tolerance time: 10 days
